Measured values: ChEMBL document CHEMBL3856234, “Development of Multifunctional Pyrimidinylthiourea Derivatives as Potential Anti-Alzheimer Agents” (J Med Chem, 2016)
Converted amounts (≈) assume the structure as drawn. The source made the active and inactive calls. The rule behind the calls is not given here.

Columns and labels:
[1] = Permeability of the compound in PBS/EtOH (7:3) buffer measured after 10 hrs by PAMPA assay; type: ADME; settings: read-out: Peff
[2] = molecular target: T1, Acetylcholinesterase (Rattus norvegicus) (UniProt P37136); test: Inhibition of rat cortex AChE at 40 uM using acetylthiocholine iodide as substrate measured after 20 mins by Ellman's method relative to control
T1 sequence (whole entry): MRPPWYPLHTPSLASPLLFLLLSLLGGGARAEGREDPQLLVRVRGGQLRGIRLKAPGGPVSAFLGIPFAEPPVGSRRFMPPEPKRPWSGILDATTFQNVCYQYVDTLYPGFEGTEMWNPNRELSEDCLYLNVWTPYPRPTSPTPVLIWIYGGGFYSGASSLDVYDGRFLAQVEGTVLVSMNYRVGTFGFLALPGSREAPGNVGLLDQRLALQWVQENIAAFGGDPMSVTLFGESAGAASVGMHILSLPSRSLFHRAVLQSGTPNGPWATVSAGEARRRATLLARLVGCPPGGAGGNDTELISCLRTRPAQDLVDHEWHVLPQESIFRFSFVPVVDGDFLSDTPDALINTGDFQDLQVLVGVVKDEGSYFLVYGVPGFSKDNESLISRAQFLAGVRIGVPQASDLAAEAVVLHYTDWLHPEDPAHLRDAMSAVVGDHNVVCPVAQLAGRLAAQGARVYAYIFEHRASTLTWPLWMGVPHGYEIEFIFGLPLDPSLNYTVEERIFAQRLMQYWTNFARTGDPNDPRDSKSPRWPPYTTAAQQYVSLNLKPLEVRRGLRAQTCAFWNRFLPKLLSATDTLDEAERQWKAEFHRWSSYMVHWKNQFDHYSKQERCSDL

Acetylcholinesterase = molecular target: T2, Acetylcholinesterase (Rattus norvegicus, UniProt P37136); test: Inhibition of rat cortex AChE using acetylthiocholine iodide as substrate measured after 20 mins by Ellman's method
T2 sequence (P37136 whole entry): T1 sequence (whole entry)

Rattus norvegicus [3] = species: Rattus norvegicus; test: Selectivity index, ratio of IC50 for rat serum BuChE to IC50 for rat cortex AChE
Rattus norvegicus [4] = species: Rattus norvegicus; test: Inhibition of rat serum BuChE at 40 uM using butyrylthiocholine as substrate measured after 20 mins by Ellman's method relative to control
[5] = Inhibition of rat serum BuChE using butyrylthiocholine as substrate measured after 20 mins by Ellman's method
[6] = Antioxidant activity assessed as trolox equivalent of AAPH radical scavenging activity preincubated for 10 mins followed by AAPH challenge measured every min for 180 mins by ORAC-FL assay; type: functional
[7] = Solubility of the compound in water measured after 24 hrs by HPLC analysis; type: physicochemical
[8] = Inhibition of cupric ion-induced aggregation of amyloid beta (1 to 42) (unknown origin) at compound:amyloid beta (1 to 42):Cu2+ ratio of 2:1:1 measured after 24 hrs by TEM analysis
[9] = Cytotoxicity against human SH-SY5Y cells assessed as reduction in cell viability at 100 uM measured after 24 hrs by MTT assay; type: toxicity, cell-based
[10] = Cytotoxicity against human SH-SY5Y cells assessed as reduction in cell viability at 10 and 30 uM measured after 24 hrs by MTT assay; type: toxicity, cell-based

SMILES	inhibition [2]	IC50 (Acetylcholinesterase)	other results
CNCCCN1c2ccccc2CCc2ccccc21 [DESIPRAMINE]			Papp at 10 h [1]: 16.6 ×10⁻⁶ cm/s
CCNC(=S)Nc1nc2c(c(-n3ccnc3)n1)CCC2	24.4%	> 40 µM	
CCNC(=S)Nc1cc(-n2cnc(CNC)c2)ncn1		0.251 µM	Ratio IC50 (Rattus norvegicus [3]): > 159; inhibition (Rattus norvegicus [4]): 27.3%; IC50 [5]: > 40 µM; Activity (umolequiv/umol) [6]: 1.32
CCNc1cc(-n2cccn2)ncn1	32.1%		
CCNC(=S)Nc1cc(-n2cccn2)ncn1	77.3%	8.14 µM	
CCNC(=S)Nc1cc(-n2cncn2)ncn1	66.6%	1.05 µM	
CCNC(=S)Nc1cc(-n2cnc(CNC3CCCCC3)c2)ncn1		0.424 µM	
CCNC(=S)Nc1ncnc(-n2ccnc2)c1C	45.9%	> 40 µM	
CCNC(=S)Nc1cc(-n2ccnc2)nc(C)n1	71.4%	8.72 µM	
S=C(NCc1cccc(Cl)c1)Nc1cc(-n2cccn2)ncn1	0%		
CCCc1cc(-n2cccn2)ncn1	9.88%		
CCNC(=S)Nc1cc(-n2cnc(CN(C)Cc3ccccc3)c2)ncn1 [listing 1 of 2 here]		0.181 µM	IC50 [5]: 15.2 µM; solubility at 24 h [7]: 58 µg/mL (≈ 152 µM); Papp at 10 h [1]: 8.8 ×10⁻⁶ cm/s
CCNC(=S)Nc1cc(-n2cnc(CN3CCCCC3)c2)ncn1		0.111 µM	Ratio IC50 (Rattus norvegicus [3]): 164; IC50 [5]: 18.2 µM; Activity (umolequiv/umol) [6]: 1.27; Papp at 10 h [1]: 5 ×10⁻⁶ cm/s
CCNC(=S)Nc1cc(-n2cnc(C)c2)ncn1		3.25 µM	
CCNC(=S)Nc1cc(N2CCCC2)ncn1	39.2%	> 40 µM	
CCOc1cc(-n2cccn2)ncn1	11.8%		
Oc1c(I)cc(Cl)c2cccnc12			inhibition [8]: Active
CCNC(=S)Nc1cc(NCc2ccccc2)ncn1	10.9%	> 40 µM	
CCNC(=S)Nc1cc(N2CCOCC2)ncn1	54.1%	23.2 µM	
CC(C)NC(=S)Nc1cc(-n2cccn2)ncn1	36.2%		

SMILES	inhibition [2]	IC50 (Acetylcholinesterase)	other results
CCNC(=S)Nc1cc(-n2cnc(CN3CCN(C)CC3)c2)ncn1		0.103 µM	Ratio IC50 (Rattus norvegicus [3]): > 388; inhibition (Rattus norvegicus [4]): 10.8%; IC50 [5]: > 40 µM; Activity (umolequiv/umol) [6]: 1.23; Papp at 10 h [1]: 1.95 ×10⁻⁶ cm/s
CCCNC(=S)Nc1cc(-n2cccn2)ncn1	64%	22 µM	
CCNC(=S)Nc1cc(-n2cnc(CN3CCOCC3)c2)ncn1		0.304 µM	Ratio IC50 (Rattus norvegicus [3]): > 132; inhibition (Rattus norvegicus [4]): 13.3%; IC50 [5]: > 40 µM; Activity (umolequiv/umol) [6]: 1.48; Papp at 10 h [1]: 0.35 ×10⁻⁶ cm/s
CCCCNC(=S)Nc1cc(-n2cccn2)ncn1	66.6%	23.4 µM	
S=C(NCc1ccccc1)Nc1cc(-n2cccn2)ncn1	17.3%		
c1ccc(CNc2cc(-n3cccn3)ncn2)cc1	10.8%		
CCNCc1cn(-c2cc(NC(=S)NCC)ncn2)cn1		0.342 µM	Ratio IC50 (Rattus norvegicus [3]): > 117; inhibition (Rattus norvegicus [4]): 21.5%; IC50 [5]: > 40 µM; Activity (umolequiv/umol) [6]: 1.33
CCNC(=S)Nc1nccc(-n2ccnc2)n1	64.9%	8.45 µM	
CCNC(=S)Nc1cc(-n2cnc([N+](=O)[O-])c2)ncn1		0.17 µM	
CCNC(=S)Nc1cc(-n2cnc(CN3CCCC3)c2)ncn1.Cl			solubility at 24 h [7]: 19500 µg/mL
CCNC(=O)Nc1cc(-n2cccn2)ncn1	22.1%		
CCNC(=S)Nc1cc(-n2cnc3ccccc32)ncn1	66.2%	7.84 µM	
S=C(Nc1cc(-n2cccn2)ncn1)NC1CCCCC1	11.2%		
CCNC(=S)Nc1cc(-n2cnc(CN3CCCCCC3)c2)ncn1		0.121 µM	Ratio IC50 (Rattus norvegicus [3]): 59; IC50 [5]: 7.19 µM; Activity (umolequiv/umol) [6]: 1.24; Papp at 10 h [1]: 5.3 ×10⁻⁶ cm/s
CCNC(=S)Nc1cc(-n2cnc(I)c2)ncn1		0.636 µM	
CCNC(=S)Nc1cc(-n2cnc(C(=O)OC)c2)ncn1		0.347 µM	
CC(C)(C)NC(=S)Nc1cc(-n2cccn2)ncn1	11.3%		
CCNC(=S)Nc1ccnc(-n2ccnc2)n1	46.6%	> 40 µM	
COc1cc2c(cc1OC)C(=O)C(CC1CCN(Cc3ccccc3)CC1)C2 (centres undefined) [DONEPEZIL]			Activity [9]: Toxic; Activity [10]: Non-Toxic
CCNC(=S)Nc1cc(-n2cnc(CN(CC)CC)c2)ncn1		0.115 µM	Ratio IC50 (Rattus norvegicus [3]): > 348; inhibition (Rattus norvegicus [4]): 20.2%; IC50 [5]: > 40 µM; Activity (umolequiv/umol) [6]: 1.31; Papp at 10 h [1]: 1 ×10⁻⁶ cm/s

SMILES	inhibition [2]	IC50 (Acetylcholinesterase)	other results
CCNC(=S)Nc1cc(-n2cnc(Br)c2)ncn1		0.975 µM	
CCNC(=S)Nc1cc(-n2cnc(Cl)c2)ncn1		0.615 µM	
CCNC(=S)Nc1cc(-n2cnc(C=O)c2)ncn1		0.166 µM	Ratio IC50 (Rattus norvegicus [3]): > 241; inhibition (Rattus norvegicus [4]): 4.63%; IC50 [5]: > 40 µM; Activity (umolequiv/umol) [6]: 0.31
CCNC(=S)Nc1cc(-n2ccnc2C)ncn1		6.1 µM	
CCNC(=S)Nc1cc(-n2ccnc2CC)ncn1		6.7 µM	
CCNC(=S)Nc1cc(-n2cnc(C(F)(F)F)c2)ncn1		0.957 µM	
CCNC(=S)Nc1cc(-n2ccnn2)ncn1	61.5%	14.4 µM	
CCNC(=S)Nc1cc(-n2cnc(CN(C)C)c2)ncn1		0.153 µM	Ratio IC50 (Rattus norvegicus [3]): > 261; inhibition (Rattus norvegicus [4]): 7.02%; IC50 [5]: > 40 µM; Activity (umolequiv/umol) [6]: 1.17; Papp at 10 h [1]: 3 ×10⁻⁶ cm/s
CCNC(=S)Nc1cc(-n2cnc(CO)c2)ncn1		0.995 µM	
CCNC(=S)Nc1cc(-n2cnc(CNCc3ccccc3)c2)ncn1		0.274 µM	Ratio IC50 (Rattus norvegicus [3]): > 146; inhibition (Rattus norvegicus [4]): 48%; IC50 [5]: > 40 µM; Activity (umolequiv/umol) [6]: 1.3
Nc1cc(-n2cccn2)ncn1	18.9%		
CCNC(=S)Nc1cc(-n2cnc(CN(C)Cc3ccccc3)c2)ncn1.Cl			solubility at 24 h [7]: 2740 µg/mL
CC(=O)Nc1cc(-n2cccn2)ncn1	5.09%		
CCNC(=S)Nc1cc(-n2cnc(CN(C)Cc3ccccc3)c2)ncn1 [listing 2 of 2 here]			Ratio IC50 (Rattus norvegicus [3]): 84; Activity (umolequiv/umol) [6]: 1.25
CCNC(=S)Nc1cc(-n2ccnc2)ncn1	72.8%	1.59 µM	
CCNC(=S)Nc1cc(N2CCN(C)CC2)ncn1	70.1%	3.26 µM	
CNC(=S)Nc1cc(-n2cccn2)ncn1	46%		
C/C=C1\[C@H]2C=C(C)C[C@]1(N)c1ccc(=O)[nH]c1C2 [HUPERZINE A]		0.082 µM	Ratio IC50 (Rattus norvegicus [3]): 444; IC50 [5]: 36.4 µM; Activity [9]: Non-Toxic; Activity [10]: Non-Toxic
CCNC(=S)Nc1cc(-n2cccc2)ncn1	13.8%	> 40 µM	
